Reference: patent US20120190669A1, “OXINDOLE COMPOUNDS” (CYLENE PHARMACEUTICALS, INC., priority 2008, published 2012)
Like-named read-outs stand apart in the source and are kept apart here.

Key:
K-562 = assay: Alamar Blue cell proliferation assay, K-562; format: cell-based; details: Homo sapiens
Experimental: (§1) A representative cell-proliferation assay protocol using Alamar Blue dye (stored at 4° C., use 20 ul per well) is described hereafter.
(§2) 96-Well Plate Setup and Compound Treatment
(§3) a. Split and trypsinize cells.
(§4) b. Count cells using hemocytometer.
(§5) c. Plate 4,000-5,000 cells per well in 100 μl of medium and seed into a 96-well plate according to the following plate layout. Add cell culture medium only to wells B10 to B12. Wells B1 to B9 have cells but no compound added.
(§6) d. Add 100 μl of 2× drug dilution to each well in a concentration shown in the plate layout above. At the same time, add 100 μl of media into the control wells (wells 1310 to B12). Total volume is 200 μl/well.
(§7) e. Incubate four (4) days at 37° C., 5% CO2 in a humidified incubator.
(§8) f. Add 20 μl Alamar Blue reagent to each well.
(§9) g. Incubate for four (4) hours at 37° C., 5% CO2 in a humidified incubator.
(§10) h. Record fluorescence at an excitation wavelength of 544 nm and emission wavelength of 590 nm using a microplate reader.
(§11) In the assays, cells are cultured with a test compound for approximately four days, the dye is then added to the cells and fluorescence of […] dye is detected after approximately four hours. Different types of cells can be utilized in the assays (e.g., HCT-116 human colorectal carcinoma cells, PC-3 human prostatic cancer cells and MiaPaca human pancreatic carcinoma cells).

[1] = test system: MiaPaca human pancreatic carcinoma cells; assay: Alamar Blue cell proliferation assay, MiaPaCa; format: cell-based
Experimental: as §1, §2, §3, §4, §5, §6, §7, §8, §9, §10, §11

[2] = test system: PC-3 human prostatic cancer cells; assay: Alamar Blue cell proliferation assay, PC3; format: cell-based
Experimental: as §1, §2, §3, §4, §5, §6, §7, §8, §9, §10, §11

MDAMB-231 = assay: Alamar Blue cell proliferation assay, MDAMB-231; format: cell-based; details: Homo sapiens, MDA-MB-231, Table 3, read-out: AB: MDAMB-231
Experimental: as §1, §2, §3, §4, §5, §6, §7, §8, §9, §10, §11

MV-4-11 = assay: Alamar Blue cell proliferation assay, MV-4-11; format: cell-based; details: Homo sapiens
Experimental: as §1, §2, §3, §4, §5, §6, §7, §8, §9, §10, §11

recombinant PIM-1 = recombinant PIM-1 (Homo sapiens, UniProt P11309); assay: PIM-1 kinase assay (radiometric, 15 uM ATP, DMSO 4%); format: biochemical; details: for IC50: Table 3, DMSO 4%, read-out: PIM1: IC50 (DMSO 4%); for inhibition at 0.5 µM: Table 5, compound at 500 nM, read-out: PIM1: % inh 500 nM
recombinant PIM-1, sequence (P11309 whole entry): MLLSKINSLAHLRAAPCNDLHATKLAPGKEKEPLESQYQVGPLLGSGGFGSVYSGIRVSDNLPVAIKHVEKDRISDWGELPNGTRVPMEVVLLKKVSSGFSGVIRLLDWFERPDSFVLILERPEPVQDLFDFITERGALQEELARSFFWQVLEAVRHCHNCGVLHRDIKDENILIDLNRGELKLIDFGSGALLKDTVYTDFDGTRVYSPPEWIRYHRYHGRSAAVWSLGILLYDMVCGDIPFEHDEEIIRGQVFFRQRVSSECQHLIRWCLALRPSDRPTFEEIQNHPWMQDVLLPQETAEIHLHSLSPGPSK

[3] = test system: HCT-116 human colorectal carcinoma cells; assay: Alamar Blue cell proliferation assay, HCT-116; format: cell-based; details: Table 5, read-out: AB: HCT-116 IC50
Experimental: as §1, §2, §3, §4, §5, §6, §7, §8, §9, §10, §11

[4] = K562, Table 3, read-out: AB: K-562
[5] = MIA PaCa-2, Table 3, read-out: AB: MiaPaCa
[6] = MV4-11, Table 3, read-out: AB: MV-4-11
[7] = K562, Table 5, read-out: AB: K-562 IC50
[8] = MIA PaCa-2, Table 5, read-out: AB: MiaPaCa IC50
[9] = Table 5, read-out: AB: PC3 IC50
[10] = MV4-11, Table 5, read-out: AB: MV-4-11 IC50

Row | Structure (SMILES) | IC50 (K-562; [4]) [µM] | IC50 [1, 5] [µM] | IC50 ([2]; Table 3, read-out: AB: PC3) [µM] | IC50 (MDAMB-231) [µM] | IC50 (MV-4-11; [6]) [µM] | IC50 (recombinant PIM-1) [µM] | inhibition at 0.5 µM (recombinant PIM-1) [%] | IC50 (K-562; [7]) [µM] | IC50 [1, 8] [µM] | IC50 [2, 9] [µM] | IC50 (MV-4-11; [10]) [µM] | IC50 [3] [µM]
1 | CC/C(=C1\C(=O)Nc2ccc(Cl)cc21)c1ccc(-c2cccc(C(=O)N3CCCN(C)CC3)c2)o1 | 0.153 | 0.302 | > 30 | > 10 | 0.109 | – | – | – | – | – | – | –
2 | O=C1Nc2ccc(Cl)cc2/C1=C\c1ccc(-c2ccc(OCCN3CCOCC3)cc2)o1 | > 10 | > 10 | > 30 | > 10 | > 10 | < 1 | – | – | – | – | – | –
3 | O=C1Nc2ccc(Cl)cc2/C1=C\c1ccc(-c2cccc(-c3nnc[nH]3)c2)o1 | > 10 | > 10 | > 30 | > 10 | > 10 | < 1 | – | – | – | – | – | –
4 | O=C1Nc2ccc(Cl)cc2/C1=C\c1ccc(-c2cccc(C(=O)N3CCCNCC3)c2)o1 | 0.342 | 0.815 | 9.62 | 3.15 | – | – | – | – | – | – | – | –
5 | O=C1Nc2ccc(Cl)cc2/C1=C/c1ccc(-c2cnn(CCN3CCOCC3)c2)o1 | 2.32 | > 10 | > 30 | > 10 | 0.198 | < 1 | – | – | – | – | – | –
6 | CS(=O)(=O)Nc1ccc(-c2ccc(/C=C3\C(=O)Nc4ccc(Cl)cc43)o2)cc1 | 2.88 | > 10 | 11 | > 10 | 2.22 | < 1 | – | – | – | – | – | –
7 | O=C1Nc2ccc(Cl)cc2/C1=C/c1ccc(-c2ccc3cc(O)ccc3c2)o1 | > 10 | > 10 | 12 | > 10 | 0.189 | < 1 | – | – | – | – | – | –
8 | NC(=O)c1ccc(-c2ccc(/C=C3\C(=O)Nc4ccc(Cl)cc43)o2)cc1 | > 10 | > 10 | > 30 | > 10 | – | < 1 | – | – | – | – | – | –
9 | NC(=O)c1cccc(-c2ccc(/C=C3\C(=O)Nc4ccc(Cl)cc43)o2)c1 | > 10 | > 10 | > 30 | > 10 | 1.91 | < 1 | – | – | – | – | – | –
10 | CC(=O)Nc1cccc(-c2ccc(/C=C3\C(=O)Nc4ccc(Cl)cc43)o2)c1 | > 10 | > 10 | 2.68 | > 10 | 0.748 | < 1 | – | – | – | – | – | –
11 | COC(=O)c1cccc(-c2coc(/C=C3/C(=O)Nc4ccccc43)c2)c1 | – | – | – | – | – | – | -18.4 | 1.31 | 4.34 | 1.89 | > 10 | 2.33
12 | CN1CCCC(NC(=O)c2cccc(-c3coc(/C=C4/C(=O)Nc5ccccc54)c3)c2)C1 (centres unmarked) | – | – | – | – | – | – | -22.7 | > 10 | > 10 | > 10 | 0.315 | 4.31
13 | CN1CCCCC1CNC(=O)c1cccc(-c2coc(/C=C3/C(=O)Nc4ccccc43)c2)c1 (centres unmarked) | – | – | – | – | – | – | -28.9 | 0.099 | 2.4 | 1.65 | 0.12 | 2.49
14 | CN(C)C1CCN(C(=O)c2cccc(-c3coc(/C=C4/C(=O)Nc5ccccc54)c3)c2)CC1 | – | – | – | – | – | – | -38.8 | 0.077 | 9.37 | > 10 | 2.14 | 7.01
15 | CCN(CC)CCNC(=O)c1cccc(-c2coc(/C=C3/C(=O)Nc4ccccc43)c2)c1 | – | – | – | – | – | – | -10.9 | > 10 | 9.23 | > 10 | 0.761 | 7.82
